pIC50: −log10 of the molar value. Active and inactive are the calls of the source. No cut-off for these calls is given here.
Legend:
[1] = molecular target: T1, P2X purinoceptor 7 (Homo sapiens, UniProt Q99572); assay: Antagonist activity at human recombinant P2X7 receptor assessed as inhibition of calcium flux by FLIPR assay; assay type: functional
T1 sequence (Q99572 whole entry): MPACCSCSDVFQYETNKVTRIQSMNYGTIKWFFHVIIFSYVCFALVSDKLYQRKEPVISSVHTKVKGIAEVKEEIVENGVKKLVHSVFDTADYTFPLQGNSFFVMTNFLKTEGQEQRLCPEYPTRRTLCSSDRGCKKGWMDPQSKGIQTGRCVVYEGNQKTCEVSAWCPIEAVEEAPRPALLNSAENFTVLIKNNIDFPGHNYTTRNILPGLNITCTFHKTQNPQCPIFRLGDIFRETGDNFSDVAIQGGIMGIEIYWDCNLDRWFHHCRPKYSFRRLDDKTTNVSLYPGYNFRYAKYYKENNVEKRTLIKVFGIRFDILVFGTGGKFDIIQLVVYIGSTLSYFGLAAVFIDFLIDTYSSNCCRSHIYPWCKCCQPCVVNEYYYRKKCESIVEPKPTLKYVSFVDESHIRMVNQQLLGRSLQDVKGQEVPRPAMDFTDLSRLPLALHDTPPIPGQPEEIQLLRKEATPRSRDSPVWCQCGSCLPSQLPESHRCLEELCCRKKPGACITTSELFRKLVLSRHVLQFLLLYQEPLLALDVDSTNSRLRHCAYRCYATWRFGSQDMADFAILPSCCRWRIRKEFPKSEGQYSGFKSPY

[2] = molecular target: T2, P2X purinoceptor 7 (Rattus norvegicus, UniProt Q64663); assay: Antagonist activity at rat recombinant P2X7 receptor assessed as inhibition of calcium flux by FLIPR assay; assay type: functional
T2 sequence (Q64663 whole entry): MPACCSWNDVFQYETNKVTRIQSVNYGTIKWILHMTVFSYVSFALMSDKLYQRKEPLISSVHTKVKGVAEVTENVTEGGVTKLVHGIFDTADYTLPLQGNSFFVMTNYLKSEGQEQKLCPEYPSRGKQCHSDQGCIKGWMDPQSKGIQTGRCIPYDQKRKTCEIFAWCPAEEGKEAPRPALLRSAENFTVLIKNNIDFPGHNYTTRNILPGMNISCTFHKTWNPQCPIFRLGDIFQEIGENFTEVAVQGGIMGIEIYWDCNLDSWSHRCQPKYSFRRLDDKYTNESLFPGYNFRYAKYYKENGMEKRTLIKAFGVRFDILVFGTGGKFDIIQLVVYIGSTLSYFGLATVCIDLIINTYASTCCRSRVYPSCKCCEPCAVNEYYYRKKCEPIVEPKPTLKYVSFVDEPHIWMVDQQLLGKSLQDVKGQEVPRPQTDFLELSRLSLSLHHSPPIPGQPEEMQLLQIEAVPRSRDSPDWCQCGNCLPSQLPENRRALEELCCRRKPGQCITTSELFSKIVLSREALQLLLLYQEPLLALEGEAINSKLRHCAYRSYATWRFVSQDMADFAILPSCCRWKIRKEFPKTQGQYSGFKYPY

[3] = molecular target: P2Y purinoceptor 2 (Homo sapiens) (UniProt P41231); assay: Inhibition of P2Y2 receptor at 10 uM
[4] = molecular target: T3, P2X purinoceptor 4 (Homo sapiens) (UniProt Q99571); assay: Inhibition of P2X4 receptor at 10 uM
T3 sequence (whole entry): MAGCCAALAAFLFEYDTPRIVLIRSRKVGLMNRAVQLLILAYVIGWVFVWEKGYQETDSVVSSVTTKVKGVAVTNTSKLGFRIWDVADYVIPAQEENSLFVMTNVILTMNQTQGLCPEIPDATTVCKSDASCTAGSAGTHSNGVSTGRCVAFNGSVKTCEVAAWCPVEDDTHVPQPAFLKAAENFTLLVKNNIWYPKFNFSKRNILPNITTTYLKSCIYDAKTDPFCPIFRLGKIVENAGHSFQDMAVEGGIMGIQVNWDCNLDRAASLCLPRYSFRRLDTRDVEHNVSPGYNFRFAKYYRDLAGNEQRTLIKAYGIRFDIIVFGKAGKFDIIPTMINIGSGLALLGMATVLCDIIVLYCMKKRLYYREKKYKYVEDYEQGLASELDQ

[5] = molecular target: T4, P2X purinoceptor 3 (Homo sapiens) (UniProt P56373); assay: Inhibition of P2X3 receptor at 10 uM
T4 sequence (whole entry): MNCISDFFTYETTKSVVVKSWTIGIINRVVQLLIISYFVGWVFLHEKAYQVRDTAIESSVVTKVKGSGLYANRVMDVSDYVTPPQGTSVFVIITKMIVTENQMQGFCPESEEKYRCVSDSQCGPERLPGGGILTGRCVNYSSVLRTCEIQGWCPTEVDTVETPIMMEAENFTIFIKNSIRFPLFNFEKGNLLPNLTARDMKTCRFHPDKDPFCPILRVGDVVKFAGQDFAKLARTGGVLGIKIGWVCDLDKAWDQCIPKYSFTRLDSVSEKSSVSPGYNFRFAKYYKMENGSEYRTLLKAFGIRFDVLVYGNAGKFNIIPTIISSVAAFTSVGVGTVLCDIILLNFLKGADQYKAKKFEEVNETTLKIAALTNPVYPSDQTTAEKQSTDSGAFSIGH

[6] = Inhibition of P2X2/3 receptor at 10 uM

Chain of P2Y purinoceptor 2 (Homo sapiens) (P41231 whole entry): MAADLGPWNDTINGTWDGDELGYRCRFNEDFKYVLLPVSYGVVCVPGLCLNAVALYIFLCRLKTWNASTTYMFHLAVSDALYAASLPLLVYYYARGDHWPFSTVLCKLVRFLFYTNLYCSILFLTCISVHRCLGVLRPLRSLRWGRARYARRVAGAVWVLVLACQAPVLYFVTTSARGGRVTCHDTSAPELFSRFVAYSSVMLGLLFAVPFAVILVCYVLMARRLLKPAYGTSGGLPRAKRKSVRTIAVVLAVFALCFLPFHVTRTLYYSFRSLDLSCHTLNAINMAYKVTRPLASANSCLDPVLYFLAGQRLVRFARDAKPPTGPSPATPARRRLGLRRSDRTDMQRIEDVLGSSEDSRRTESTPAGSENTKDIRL

Row | pIC50 [1] | pIC50 [2] | SMILES | other results
1 | 5.89 | 4.80 | COc1ccc(CC(=O)N2CCN(C(=Nc3ccccc3C)NC#N)[C@H](C(C)C)C2)cc1OC | –
2 | – | – | COc1ccc(C(=O)N2CCN(/C(=N/C#N)Nc3cccc4ncccc34)CC2c2ccccc2)cc1OC (stereo unspecified) | Activity [3]: inactive; Activity [4]: inactive; Activity [5]: inactive; Activity [6]: inactive
3 | 6.39 | 6.21 | Cc1cc(CC(=O)N2CCN(/C(=N/C#N)Nc3ccccc3C)CC2c2ccccc2)no1 (stereo unspecified) | –
4 | 7.24 | 7.12 | COc1ccc(CCC(=O)N2CCN(/C(=N/C#N)Nc3ccccc3C)CC2c2ccccc2)cc1OC (stereo unspecified) | –
5 | 6.51 | 6.85 | Cc1ccccc1N/C(=N\C#N)N1CCN(C(=O)Cc2ccc3ccccc3c2)C(c2ccccc2)C1 (stereo unspecified) | –
6 | 6.96 | 6.28 | Cc1ccccc1N=C(NC#N)N1CCN(C(=O)Cc2ccco2)C(c2ccccc2)C1 (stereo unspecified) | –
7 | 7.23 | 7.52 | COc1ccc(C(=O)N2CCN(C(=Nc3cccc4ncccc34)NC#N)CC2c2ccccc2)cc1OC (stereo unspecified) | –
8 | 7.15 | 6.57 | Cc1ccccc1N/C(=N\C#N)N1CCN(C(=O)Cc2ccsc2)C(c2ccccc2)C1 (stereo unspecified) | –
9 | 6.34 | 4.72 | COc1ccc(CC(=O)N2C(C)CN(C(=Nc3ccccc3C)NC#N)CC2C)cc1OC (cis isomer) | –
10 | 7.00 | 6.68 | Cc1ccccc1N/C(=N\C#N)N1CCN(C(=O)Cc2c[nH]c3ccccc23)C(c2ccccc2)C1 (stereo unspecified) | –
11 | 6.00 | 4.85 | Cc1ccccc1N/C(=N\C#N)N1CCN(C(=O)Cc2c[nH]cn2)C(c2ccccc2)C1 (stereo unspecified) | –
12 | 7.15 | 7.02 | COc1ccc(CCCC(=O)N2CCN(/C(=N/C#N)Nc3ccccc3C)CC2c2ccccc2)cc1OC (stereo unspecified) | –
13 | 7.44 | 6.82 | Cc1ccccc1N=C(NC#N)N1CCN(C(=O)Cc2ccncc2)C(c2ccccc2)C1 (stereo unspecified) | –
14 | 7.24 | 6.85 | COc1ccc(CC(=O)N2CCN(C(=Nc3ccccc3C)NC#N)CC2c2ccccc2)cc1OC (stereo in doubt; 26) | –
15 | 6.66 | 6.60 | Cc1ccccc1N/C(=N\C#N)N1CCN(C(=O)Cc2ccoc2)C(c2ccccc2)C1 (stereo unspecified) | –
16 | 7.06 | 6.42 | Cc1ccccc1N=C(NC#N)N1CCN(C(=O)Cc2ccccc2)C(c2ccccc2)C1 (stereo unspecified) | –
17 | 7.40 | 6.41 | Cc1ccccc1N/C(=N\C#N)N1CCN(C(=O)Cc2cccnc2)C(c2ccccc2)C1 (stereo unspecified) | –
18 | 7.29 | 6.66 | COc1ccc(CC(=O)N2CCN(C(=Nc3ccccc3C)NC#N)C(c3ccccc3)C2)cc1OC (stereo unspecified) | –
19 | 5.82 | 6.20 | Cc1ccccc1N/C(=N\C#N)N1CCN(C(=O)CC23CC4CC(CC(C4)C2)C3)C(c2ccccc2)C1 (stereo unspecified) | –
20 | 7.34 | 6.82 | Cc1ccccc1N/C(=N\C#N)N1CCN(C(=O)Cc2cccs2)C(c2ccccc2)C1 (stereo unspecified) | –
21 | 6.92 | 7.85 | COc1ccc(CC(=O)NC(NC(=NC#N)Nc2ccccc2C)C(C)(C)C)cc1OC (stereo unspecified) | –
22 | 6.72 | 6.38 | COc1ccc(CC(=O)N2CCN(/C(=N/C#N)Nc3ccccc3C)CC2C(C)(C)C)cc1OC (stereo unspecified) | –
23 | 6.85 | 6.96 | Cc1ccccc1N=C(NC#N)N1CCN(C(=O)Cc2ccc(Cl)cc2)C(c2ccccc2)C1 (stereo unspecified) | –
24 | 7.36 | – | COc1ccc(CC(=O)NC(N/C(=N/C#N)Nc2cccc3ncccc23)C(C)(C)C)cc1OC (stereo unspecified) | –
25 | 7.40 | 6.49 | Cc1ccn(CC(=O)N2CCN(/C(=N/C#N)Nc3ccccc3C)CC2c2ccccc2)n1 (stereo unspecified) | –
26 | 7.03 | 6.54 | COc1ccc(C(=O)N2CCN(C(=Nc3ccccc3C)NC#N)CC2c2ccccc2)cc1OC (stereo unspecified) | –
27 | 7.22 | 6.25 | Cc1ccccc1N/C(=N\C#N)N1CCN(C(=O)Cn2nccc2C)C(c2ccccc2)C1 (stereo unspecified) | –
28 | 7.34 | 6.77 | Cc1cc(CC(=O)N2CCN(C(=Nc3ccccc3C)NC#N)CC2c2ccccc2)on1 (stereo unspecified) | –
29 | 6.37 | 5.35 | COc1ccc(CC(=O)N2CCN(C(=Nc3ccccc3C)NC#N)[C@H](CC(C)C)C2)cc1OC | –
30 | 7.24 | 6.85 | COc1ccc(CC(=O)N2CCN(C(=Nc3ccccc3C)NC#N)CC2c2ccccc2)cc1OC (stereo in doubt; 7) | –

— ChEMBL document CHEMBL1143222, “Synthesis and in vitro activity of N'-cyano-4-(2-phenylacetyl)-N-o-tolylpiperazine-1-carboximidamide P2X7 antagonists” (Bioorg Med Chem Lett, 2008)
